The values that follow come from patent US20170166555A1, “FUNCTIONALISED AND SUBSTITUTED INDOLES AS ANTI-CANCER AGENTS” (Novogen Limited, priority 2013, published 2017).

Where two headings read alike, the source gives them in different places.

For experiment [1], the system named is melanoma (SK-Mel-28) cells. Description: Cell viability assay (MTT, 48 hr). The following applies: Homo sapiens, 48 hr treatment, read-out: IC50 (μM) SKMEL28. The class given is cell-based. Here is the method: (§1) Cell viability assays were also conducted to assess the anti-proliferative effects of the anti-tropomyosin compounds 4001-4015. Briefly, cells (1×10^3/well) were plated (96-well) and treated (48 hr) with anti-tropomyosin drug and viability measured using 3-(4,5-dimethylthiazol-2-yl)-2,5-diphenylterazolium bromide MTT. Cell viability was normalized to control (vehicle alone) and dose-response curves, and half maximal effective concentration (EC50) values were determined using Graph Pad Prism 5 (nonlinear regression sigmoidal dose-response variable slope).

Experiment [2] deals with neuroblastoma (SH-EP) cells. Description: Cell viability assay (MTT, 48 hr). The class given is cell-based. The following applies: 48 hr treatment, read-out: IC50 (μM) SHEP. Here is the method: as §1
Experiment [3] has as its system non-transfected and Tm5NM1 stably transfected MEFs. Description: MTT viability in non-transfected versus Tm5NM1 stably transfected MEFs. The class given is cell-based, mouse. The note with it: 48 hr, FIG. 1. Here is the method: FIG. 1: Activity of selected compounds against Tm5NM1/2 transfected mouse embryonic fibroblasts versus non-transfected MEFs.
Compounds 4001, 4010, 4014, 4008 and 4015 were then screened against non-transfected and Tm5NM1 stably transfected MEFs. Briefly, MEFs were transfected with pEYFP-C1/Tm5NM1 constructs using the Amaxa nucleofector apparatus (program A-023) and MEF nucleofector kit 1 (Lonza) according to the manufacturer's instructions. Cell viability assays were also conducted to assess the anti-proliferative effects of the anti-tropomyosin compounds. Briefly, cells (1×10^3/well) were plated (96-well) and treated (48 hr) with anti-tropomyosin compounds and viability measured using 3-(4,5-dimethylthiazol-2-yl)-2, 5-diphenylterazolium bromide MTT. Cell viability was normalized to control (vehicle alone) and dose-response curves, and half maximal effective concentration (EC50) values were determined using Graph Pad Prism 5 (nonlinear regression sigmoidal dose-response variable slope).

In experiment [4] the test system is A549 non-small cell lung carcinoma cells. Description: Anti-proliferative assay, cell-titre luminescent reagent, 72 h (GVK-BIO). The class given is cell-based. The note with it: Homo sapiens, read-out: IC50/μM Lung (NSLC) A549. The method, boiled down:
(§2)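 Cells were plated at predetermined densities in ATCC-recommended medium and allowed to attach for 24 h at 37 °C, 5% CO2 before dosing. The compound series was tested either at 30, 3, 0.3 and 0.03 μM with IC50 from linear regression of semi-log percent-of-control plots, or at 30, 10, 3, 1, 0.3 and 0.1 μM with EC50 from variable-slope sigmoidal nonlinear fits.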

For experiment [5], the system named is CaCo2 colorectal cancer cells. The experiment is described as above. The class given is cell-based. The following applies: Homo sapiens. The method, boiled down:
as §2

For experiment [6], the system named is DU145 prostate cancer cells. The description is as above. The class given is cell-based. The note with it: Homo sapiens. The method, boiled down:
as §2

Experiment [7] concerns MDA-MB-231 triple negative breast cancer cells. The description is as above. The class given is cell-based. The note with it: Homo sapiens. The method, boiled down:
as §2

Experiment [8] deals with PC3 prostate cancer cells. Described as above. The class given is cell-based. The method, boiled down:
as §2

In the next experiment the test system is SK-Mel-28 melanoma cells. The experiment is described as above. It is filed as cell-based. The following applies: Homo sapiens. The method, boiled down: as §2
Experiment [9] deals with SK-N-SH neuroblastoma cells. Described as above. The class given is cell-based. The note with it: Homo sapiens. The method, boiled down: as §2
The subject of experiment [10] is total actin cytoskeleton in SK-N-SH neuroblastoma cells. Description: Microfilament disruption assay, 488-Atto-Phallodin imaging and filament quantitation. It is filed as cell-based. The note with it: 0-40 μM, 24 h, FIG. 2. The procedure:
(§3) FIG. 2: Imaging and quantitation of actin filaments in SK—N—SH neuroblastoma cells treated with compound (A) 4093 and (B) 4113. Cells were stained with 488-Atto-Phallodin and DAPI to visualize the actin filament bundles and the nucleus, respectively. Shown in the top panel is a representative grey scale immunofluorescent image from control (vehicle alone), 5 μM and 10 μM treated cells. […] The coloured lines indicate the detected actin filaments. Also shown is the quantitation of cell number, filament number/cell and filament number/cell area ([…]). […]
(§4) The ability of compounds 4093 and 4113 to disrupt the total actin cytoskeleton (FIG. 2) and to specifically target Tm5NM1-containing actin filaments (FIG. 3) was assessed in vitro using the microfilament disruption assay.
(§5) Briefly, SK-N-SH neuroblastoma cells were seeded at 1800 cells/well in a 384 Perkin Elmer High Content Imaging “View” plate and left to plate down 24 h prior to treatment. […] Images were then exported and changes in the organization and numbers of actin filaments within the cell were quantitated using a linear feature detection algorithm developed by the CSIRO. […] It is these “ridge lines” that correspond to actin filament bundles and allow us to quantitate the number of filaments per cell.

Experiment [11] concerns Tm5NM1-containing actin filaments in SK-N-SH neuroblastoma cells. The experiment can be described thus: Microfilament disruption assay, γ9d staining imaging and filament quantitation. The following applies: 0-40 μM, 24 h, FIG. 3. The class given is cell-based. Here is the method:
as §3, with “FIG. 3:” for “FIG. 2:”, “with γ9d (sheep polycolonal, 1:100) followed by 488-conjugated secondary (1:1000)” for “with 488-Atto-Phallodin”, “the Tm5NM1 containing” for “the actin”
as §4, §5

The mark [12] stands for this setting: A549, 72 h, 30, 3, 0.3 and 0.03 μM, linear regression (Tables 2-4).
[13] abbreviates: Caco-2, 72 h, 30, 3, 0.3 and 0.03 μM, linear regression (Tables 2-4).
The mark [14] stands for this setting: DU-145, 72 h, 30, 3, 0.3 and 0.03 μM, linear regression (Tables 2-4).
The mark [15] stands for this setting: MDA-MB-231, 72 h, 30, 3, 0.3 and 0.03 μM, linear regression (Tables 2-4).
Where [16] appears, read: 30, 3, 0.3 and 0.03 μM, linear regression (Tables 2-4).
The mark [17] stands for this setting: SK-MEL-28, 72 h, 30, 3, 0.3 and 0.03 μM, linear regression (Tables 2-4).
Where [18] appears, read: SK-N-SH, 30, 3, 0.3 and 0.03 μM, linear regression (Tables 2-4).

On to `Cc1c(C)n(CCCN(C)C)c2ccc(Nc3ccc(C(=O)Nc4ccccc4)cc3)cc12` [Compound 4010, 4-((1-(3-(dimethylamino)propyl)-2,3-dimethyl-1H-indol-5-yl)amino)-N-phenylbenzamide], for which the IC50 in [1] is 3.4 µM; in [2], 6.4 µM; in experiment [4] (setting [12]), 2.8 µM; in [5] (setting [13]), 3.5 µM; in [6] (setting [14]), 3.4 µM; in experiment [7] (setting [15]), 2.6 µM. The results for the IC50 (in experiment [8] (setting [16]); in the experiment with SK-Mel-28 melanoma cells (setting [17]); in [9] (setting [18])) were 4 µM, 3.4 µM and 3.6 µM, respectively. Besides, the “Selectivity: toxicity against primary MEFs versus MEFs stably transfected with Tm5NM1/2” value in experiment [3] is “less toxicity noted against primary mouse embryonic fibroblasts (MEFs) compared with MEFs stably transfected with Tm5NM1/2”.
Consider `CN(C)CCCn1ccc2cc(Oc3cccc(C(=O)Nc4ccccc4)c3)ccc21` [Compound 4014, 3-((1-(3-(dimethylamino)propyl)-1H-indol-5-yl)oxy)-N-phenylbenzamide], for which the IC50 in experiment [1] was determined as 4 µM; in experiment [2], 4.3 µM; in experiment [4] (setting [12]), 2.9 µM; in experiment [5] (setting [13]), 3.9 µM; in [6] (setting [14]) it was 3.6 µM; in experiment [7] (setting [15]), 2.5 µM. Moreover, the IC50 in experiment [8] (setting [16]) was 3.7 µM; with SK-Mel-28 melanoma cells (setting [17]), 3.2 µM; in experiment [9] (setting [18]), 3 µM. In addition, the “Selectivity: toxicity against primary MEFs versus MEFs stably transfected with Tm5NM1/2” value in [3] was “less toxicity noted against primary mouse embryonic fibroblasts (MEFs) compared with MEFs stably transfected with Tm5NM1/2”.
Regarding `Cc1c(C)n(CCCN2CCN(C)CC2)c2ccc(CN3CCN(CCc4ccc5c(c4)OCO5)CC3)cc12` [Compound 4113, 5-((4-(2-(benzo[d][1,3]dioxol-5-yl)ethyl)piperazin-1-yl)methyl)-2,3-dimethyl-1-(3-(4-methylpiperazin-1-yl)propyl)-1H-indole], the IC50 in experiment [4] (A549, 72 h, 30, 10, 3, 1, 0.3 and 0.1 μM, nonlinear regression (Table 5)) was determined as 5.2 µM; in [5] (Caco-2, 72 h, 30, 10, 3, 1, 0.3 and 0.1 μM, nonlinear regression (Table 5)), 4.6 µM; in [6] (DU-145, 72 h, 30, 10, 3, 1, 0.3 and 0.1 μM, nonlinear regression (Table 5)), 5.4 µM; in [7] (MDA-MB-231, 72 h, 30, 10, 3, 1, 0.3 and 0.1 μM, nonlinear regression (Table 5)), 2.8 µM; in experiment [8] (30, 10, 3, 1, 0.3 and 0.1 μM, nonlinear regression (Table 5)), 11.4 µM; in the experiment with SK-Mel-28 melanoma cells (SK-MEL-28, 72 h, 30, 10, 3, 1, 0.3 and 0.1 μM, nonlinear regression (Table 5)), 0.9 µM. In addition, the IC50 in [9] (SK-N-SH, 30, 10, 3, 1, 0.3 and 0.1 μM, nonlinear regression (Table 5)) turned out to be 1.7 µM. In addition, the “Disruption of the total actin cytoskeleton” value in experiment [10] is “disrupt both the total actin cytoskeleton and Tm5NM1-containing actin filaments in a dose-dependent manner”. Besides, in experiment [11], the “Disruption of Tm5NM1-containing actin filaments” value is “disrupt both the total actin cytoskeleton and Tm5NM1-containing actin filaments in a dose-dependent manner”.
